The values below come from patent US20040072894A1, “Stable pharmaceutical formulation comprising a HMG-CoA reductase inhibitor” (priority 1998, published 2004).

The data set can be described thus: pH of pravastatin sodium crystals kept in normal air, nitrogen or carbon dioxide atmosphere. It counts as physicochemical. Here is the method:
Another observation was that carbon dioxide from the air can irreversibly bind to the active substance and can cause a drop of pH. This is illustrated by the following experiment: 5 g of pravastatin sodium were dissolved in 30 ml of methanol, the pH was adjusted to 10 with 3% aqueous solution of NaOH. 400 ml of ethylacetate were added and the crystals of pravastatin sodium were formed. Crystals were filtered and dried and then put into three different atmospheres: normal air, nitrogen atmosphere and carbon dioxide atmosphere. In normal air and in the nitrogen atmosphere the pH remained the same during a period of 24 hours (normal air: 9.2, nitrogen: 9.5), but in the carbon dioxide atmosphere the pH dropped in the first two minutes from 9.2 to 6.9. After 12 minutes the pH was 6.6 and after 1 hour the pH was 6.5. After that, the pH remained constant. The third observation is that a sufficient stabilization of the active substance is already obtained at a pH of at least 7.0, but a beneficially high stability is effected at a pH of at least 8.0. We have noticed that at a pH below 8 the formation of lactone has occured and also the amount of other impurities has increased. The presence of humidity in the air and a carbon dioxide-rich atmosphere makes the negative effect of a low pH even stronger. This is illustrated by the following experiment: Pravastatin was dissolved in different buffers with the pH in a range between 7 and 11 (F=phosphate, C=citrate, B=borate). The occurrence of pravastatin in lactone form and the formation of different degradation products (impurities) was measured after 1, 5, 13 and 28 days.

Structures are written as SMILES.

On to `CC[C@H](C)C(=O)O[C@H]1C[C@H](O)C=C2C=C[C@H](C)[C@H](CC[C@@H](O)C[C@@H](O)CC(=O)O)[C@H]21` [Pravastatin sodium, pravastatin sodium], for which the pH was 6.6 (carbon dioxide atmosphere, after 12 minutes); 6.5 (carbon dioxide atmosphere, after 1 hour); 6.9 (carbon dioxide atmosphere, after the first two minutes); 9.2 (carbon dioxide atmosphere, starting value); 9.5 (crystals in nitrogen atmosphere, remained the same during 24 hours); 9.2 (crystals in normal air, remained the same during 24 hours).
